Assay [1] concerns MV-4-11 human acute myeloid leukemia. Description: MV-4-11 CCK-8 proliferation assay. Type of assay: cell-based. The settings on record: Homo sapiens, MV4-11; MV-4-11 cells, 72 hr. How it is done: (§1) The following cancer cell lines were employed: A549 human lung carcinoma (ATCC, #CCL-185); BT-474 human breast carcinoma (ATCC, #HTB-20); MDA-MB-231 human breast adenocarcinoma (ATCC, #CRM−HTB-26); MDA-MB-468 human breast adenocarcinoma (ATCC, #HTB-132); MV-4-11 human acute myeloid leukemia (ATCC, #CRL-9591); and U-87 MG human glioblastoma (ATCC, #HTB-14). Cell lines were cultured essentially according to ATCC recommendations.
(§2) 3-fold serial dilutions of each test compound were prepared ranging from 20 μM to 1.02 nM.
(§3) % Inhibition=100−(D−B)/(S−B)*100%. • S: Absorbance of cells treated with DMSO • D: Absorbance of compound-treated cells • B: Absorbance of medium with DMSO without cells
Background: Formazan colour is commonly taken as a measure of viable cells.

Assay [2] deals with U-87 MG human glioblastoma. Description: U87 MG CCK-8 proliferation assay. Format: cell-based. The conditions noted are these: Homo sapiens, U-87 MG, 72 h, U-87 MG cells, read-out: U87MG CCK-8. How it is done: as §1, §2, §3

Bounds are passed on as bounds.

For the compound `CCOc1cc(N2CCC(C(=O)N3CCC(Oc4ccc(-c5ccc(NC(=O)c6ccc(OC)c(-c7cccc(OC)c7)c6)cc5)cc4)CC3)CC2)ccc1Nc1ncc2c(n1)N(S(C)(=O)=O)c1ccccc1C(=O)N2C` [Compound 144, N-(4′-((1-(1-(3-ethoxy-4-((5-methyl-11-(methylsulfonyl)-6-oxo-6,11-dihydro-5H-benzo[e]pyrimido[5,4-b][1,4]diazepin-2-yl)amino)phenyl)piperidine-4-carbonyl)piperidin-4-yl)oxy)-[1,1′-biphenyl]-4-yl)-3′,6-dimethoxy-[1,1′-biphenyl]-3-carboxamide], the EC50 in assay [1] and in assay [2] was > 1000 nM each time.

Consider `CCOc1cc(N2CCC(C(=O)N3CCC(COc4ccc(-c5ccc(NC(=O)c6ccc(OC)c(-c7cccc(OC)c7)c6)cc5)cc4)CC3)CC2)ccc1Nc1ncc2c(n1)N(C)c1ccccc1C(=O)N2C` [Compound 145, N-(4′-((1-(1-(4-((5,11-dimethyl-6-oxo-6,11-dihydro-5H-benzo[e]pyrimido[5,4-b][1,4]diazepin-2-yl)amino)-3-ethoxyphenyl)piperidine-4-carbonyl)piperidin-4-yl)methoxy)-[1,1′-biphenyl]-4-yl)-3′,6-dimethoxy-[1,1′-biphenyl]-3-carboxamide], for which the EC50 in assay [1] and in assay [2] was > 1000 nM throughout.

`CCOc1cc(N2CCC(C(=O)N3CCC(COc4ccc(-c5ccc(NC(=O)c6ccc(OC)c(-c7cccc(OC)c7)c6)cc5)cc4)CC3)CC2)ccc1Nc1ncc2c(n1)N(S(C)(=O)=O)c1ccccc1C(=O)N2C` [Compound 146, N-(4′-((1-(1-(3-ethoxy-4-((5-methyl-11-(methylsulfonyl)-6-oxo-6,11-dihydro-5H-benzo[e]pyrimido[5,4-b][1,4]diazepin-2-yl)amino)phenyl)piperidine-4-carbonyl)piperidin-4-yl)methoxy)-[1,1′-biphenyl]-4-yl)-3′,6-dimethoxy-[1,1′-biphenyl]-3-carboxamide]: the EC50 in assay [1] and in assay [2] was > 1000 nM each time.

In the case of `CCOc1cc(N2CCC(C(=O)NCCCOc3ccc(-c4ccc(NC(=O)c5ccc(OC)c(-c6cccc(OC)c6)c5)cc4)cc3)CC2)ccc1Nc1ncc2c(n1)N(C)c1ccccc1C(=O)N2C` [Compound 147, N-(3-((4′-(3′,6-dimethoxy-[1,1′-biphenyl]-3-carboxamido)-[1,1′-biphenyl]-4-yl)oxy)propyl)-1-(4-((5,11-dimethyl-6-oxo-6,11-dihydro-5H-benzo[e]pyrimido[5,4-b][1,4]diazepin-2-yl)amino)-3-ethoxyphenyl)piperidine-4-carboxamide], the EC50 in assay [1] and in assay [2] was > 1000 nM in each case.

Take `CCOc1cc(N2CCC(C(=O)NCCCOc3ccc(-c4ccc(NC(=O)c5ccc(OC)c(-c6cccc(OC)c6)c5)cc4)cc3)CC2)ccc1Nc1ncc2c(n1)N(S(C)(=O)=O)c1ccccc1C(=O)N2C` [Compound 148, N-(3-((4′-(3′,6-dimethoxy-[1,1′-biphenyl]-3-carboxamido)-[1,1′-biphenyl]-4-yl)oxy)propyl)-1-(3-ethoxy-4-((5-methyl-11-(methylsulfonyl)-6-oxo-6,11-dihydro-5H-benzo[e]pyrimido[5,4-b][1,4]diazepin-2-yl)amino)phenyl)piperidine-4-carboxamide]: the EC50 in assay [1] and in assay [2] was > 1000 nM each time.

For `CCOc1cc(N2CCC(C(=O)NCCCOc3ccc(-c4ccc(NC(=O)c5ccc(OC)c(-c6cccc(OC)c6)c5)cc4)c(OCCCN(C)C)c3)CC2)ccc1Nc1ncc2c(n1)N(C)c1ccccc1C(=O)N2C` [Compound 152, N-(3-((4′-(3′,6-dimethoxy-[1,1′-biphenyl]-3-carboxamido)-2-(3-(dimethylamino)propoxy)-[1,1′-biphenyl]-4-yl)oxy)propyl)-1-(4-((5,11-dimethyl-6-oxo-6,11-dihydro-5H-benzo[e]pyrimido[5,4-b][1,4]diazepin-2-yl)amino)-3-ethoxyphenyl)piperidine-4-carboxamide], the EC50 in assay [1] and in assay [2] was > 1000 nM each time.

With `CCOc1cc(N2CCC(C(=O)N3CCN(Cc4ccc(-n5c(O)nnc5-c5cc(C(C)C)c(O)cc5O)cc4)CC3)CC2)ccc1Nc1ncc2c(n1)N(S(C)(=O)=O)c1ccccc1C(=O)N2C` [Compound 159, 2-((4-(4-(4-(4-(3-(2,4-dihydroxy-5-isopropylphenyl)-5-hydroxy-4H-1,2,4-triazol-4-yl)benzyl)piperazine-1-carbonyl)piperidin-1-yl)-2-ethoxyphenyl)amino)-5-methyl-11-(methylsulfonyl)-5,11-dihydro-6H-benzo[e]pyrimido[5,4-b][1,4]diazepin-6-one], the EC50 in assay [1] and in assay [2] was < 100 nM in each case.

As for `CCOc1cc(N2CCC(C(=O)N3CCN(Cc4ccc(-n5c(O)nnc5-c5cc(C(C)C)c(O)cc5O)cc4)CC3)CC2)ccc1N(CC)c1ncc2c(n1)N(S(C)(=O)=O)c1ccccc1C(=O)N2C` [Compound 160, 2-((4-(4-(4-(4-(3-(2,4-dihydroxy-5-isopropylphenyl)-5-hydroxy-4H-1,2,4-triazol-4-yl)benzyl)piperazine-1-carbonyl)piperidin-1-yl)-2-ethoxyphenyl)(ethyl)amino)-5-methyl-11-(methylsulfonyl)-5,11-dihydro-6H-benzo[e]pyrimido[5,4-b][1,4]diazepin-6-one], the EC50 in assay [1] was < 100 nM; in assay [2], 100 to 1000 nM.

Regarding `CCOc1cc(N2CCC(C(=O)N3CCC(CN4CCN(Cc5ccc(-n6c(C(=O)NC(C)C(F)(F)F)nnc6-c6cc(CC)c(OC(=O)C(C)C)cc6O)cc5)CC4)CC3)CC2)ccc1Nc1ncc2c(n1)N(S(C)(=O)=O)c1ccccc1C(=O)N2C` (stereo not shown) [Compound 161, 4-(4-(4-((4-((1-(1-(3-ethoxy-4-((5-methyl-11-(methylsulfonyl)-6-oxo-6,11-dihydro-5H-benzo[e]pyrimido[5,4-b][1,4]diazepin-2-yl)amino)phenyl)piperidine-4-carbonyl)piperidin-4-yl)methyl)piperazin-1-yl)methyl)phenyl)-5-((1,1,1-trifluoropropan-2-yl)carbamoyl)-4H-1,2,4-triazol-3-yl)-2-ethyl-5-hydroxyphenyl isobutyrate], the EC50 in assay [1] is < 100 nM; in assay [2] it was 100 to 1000 nM.

In the case of `CCOc1cc(N2CCC(C(=O)N3CCC(CN4CCN(Cc5ccc(-n6c(C(=O)NC(C)C(F)(F)F)nnc6-c6cc(CC)c(O)cc6OC(=O)C(C)C)cc5)CC4)CC3)CC2)ccc1Nc1ncc2c(n1)N(S(C)(=O)=O)c1ccccc1C(=O)N2C` (stereo not shown) [Compound 162, 2-(4-(4-((4-((1-(1-(3-ethoxy-4-((5-methyl-11-(methylsulfonyl)-6-oxo-6,11-dihydro-5H-benzo[e]pyrimido[5,4-b][1,4]diazepin-2-yl)amino)phenyl)piperidine-4-carbonyl)piperidin-4-yl)methyl)piperazin-1-yl)methyl)phenyl)-5-((1,1,1-trifluoropropan-2-yl)carbamoyl)-4H-1,2,4-triazol-3-yl)-4-ethyl-5-hydroxyphenyl isobutyrate], the EC50 in assay [1] and in assay [2] was 100 to 1000 nM each time.

As for `CCOc1cc(N2CCC(C(=O)N3CCN(Cc4ccc(-n5c(C(=O)NCCN(CC)CC)nnc5-c5cc(C(C)C)c(O)cc5O)cc4)CC3)CC2)ccc1Nc1ncc2c(n1)N(C)c1ccccc1C(=O)N2C` [Compound 163, N-(2-(diethylamino)ethyl)-5-(2,4-dihydroxy-5-isopropylphenyl)-4-(4-((4-(1-(4-((5,11-dimethyl-6-oxo-6,11-dihydro-5H-benzo[e]pyrimido[5,4-b][1,4]diazepin-2-yl)amino)-3-ethoxyphenyl)piperidine-4-carbonyl)piperazin-1-yl)methyl)phenyl)-4H-1,2,4-triazole-3-carboxamide], the EC50 in assay [1] and in assay [2] was < 100 nM throughout.

For `CCOc1cc(N2CCC(C(=O)N3CCN(Cc4ccc(-n5c(C(=O)NCCN(CC)CC)nnc5-c5cc(C(C)C)c(O)cc5O)cc4)CC3)CC2)ccc1Nc1ncc2c(n1)N(S(C)(=O)=O)c1ccccc1C(=O)N2C` [Compound 164, N-(2-(diethylamino)ethyl)-5-(2,4-dihydroxy-5-isopropylphenyl)-4-(4-((4-(1-(3-ethoxy-4-((5-methyl-11-(methylsulfonyl)-6-oxo-6,11-dihydro-5H-benzo[e]pyrimido[5,4-b][1,4]diazepin-2-yl)amino)phenyl)piperidine-4-carbonyl)piperazin-1-yl)methyl)phenyl)-4H-1,2,4-triazole-3-carboxamide], the EC50 in assay [1] and in assay [2] was < 100 nM each time.

Take `CCOc1cc(N2CCC(C(=O)NCc3ccc(CN(CC)Cc4ccc(-n5c(O)nnc5-c5cc(C(C)C)c(O)cc5O)cc4)cc3)CC2)ccc1Nc1ncc2c(n1)N(C)c1ccccc1C(=O)N2C` [Compound 165, N-(4-(((4-(3-(2,4-dihydroxy-5-isopropylphenyl)-5-hydroxy-4H-1,2,4-triazol-4-yl)benzyl)(ethyl)amino)methyl)benzyl)-1-(4-((5,11-dimethyl-6-oxo-6,11-dihydro-5H-benzo[e]pyrimido[5,4-b][1,4]diazepin-2-yl)amino)-3-ethoxyphenyl)piperidine-4-carboxamide]: the EC50 in assay [1] was < 100 nM; in assay [2] it was 100 to 1000 nM.

In the case of `CCOc1cc(N2CCC(C(=O)NCc3ccc(CN(CC)Cc4ccc(-n5c(O)nnc5-c5cc(C(C)C)c(O)cc5O)cc4)cc3)CC2)ccc1Nc1ncc2c(n1)N(S(C)(=O)=O)c1ccccc1C(=O)N2C` [Compound 166, N-(4-(((4-(3-(2,4-dihydroxy-5-isopropylphenyl)-5-hydroxy-4H-1,2,4-triazol-4-yl)benzyl)(ethyl)amino)methyl)benzyl)-1-(3-ethoxy-4-((5-methyl-11-(methylsulfonyl)-6-oxo-6,11-dihydro-5H-benzo[e]pyrimido[5,4-b][1,4]diazepin-2-yl)amino)phenyl)piperidine-4-carboxamide], the EC50 is < 100 nM in assay [1] and 100 to 1000 nM in assay [2].

(Values after patent US20240124460A1, “METHODS AND COMPOSITIONS FOR TARGETED PROTEIN DEGRADATION” (Ranok Therapeutics (Hangzhou) Co. Ltd., priority 2020, published 2024).)
